Here are results for eleven molecules from patent publication US20040024024A1, “Aromatic sulfone hydroxamates and their use as protease inhibitors” (priority 2001, published 2004).

As usually defined, the IC50 is the midpoint of a concentration-inhibition curve.

The structures appear in SMILES notation. Where a name gives a salt, the structure may show the parent alone. A value given as a limit tells only on which side of the number the result lay.

Assay in all cases: In vitro MMP inhibition, IC50 determination (fluorogenic substrate I)
Common to all, as to assay type: biochemical
Conditions in all cases: substrate (I) 4 μM, room temperature; values not in parenthesis

Assay [1] deals with T1, Human recombinant MMP-13 (Homo sapiens, UniProt P45452).
T1 construct: made in house; host or cells: baculovirus / insect cells
In outline:
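Fluorescence at 415 nm (excitation 328 nm) reports Gly-Leu cleavage of 4 μM quenched methoxycoumarin peptide substrate I. Human recombinant MMP-13, activated by trypsin or APMA, was incubated at room temperature with varied inhibitor concentrations in pH 7.5 Tris/NaCl/CaCl2 buffer; IC50 derived from reduced fluorescence.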

The target of assay [2] is T2, Human recombinant MMP-2 (Homo sapiens, UniProt P08253).
T2 construct: made in house; host or cells: MMP-2-transfected p2AHT2 cells
T2 sequence (P08253 110-660): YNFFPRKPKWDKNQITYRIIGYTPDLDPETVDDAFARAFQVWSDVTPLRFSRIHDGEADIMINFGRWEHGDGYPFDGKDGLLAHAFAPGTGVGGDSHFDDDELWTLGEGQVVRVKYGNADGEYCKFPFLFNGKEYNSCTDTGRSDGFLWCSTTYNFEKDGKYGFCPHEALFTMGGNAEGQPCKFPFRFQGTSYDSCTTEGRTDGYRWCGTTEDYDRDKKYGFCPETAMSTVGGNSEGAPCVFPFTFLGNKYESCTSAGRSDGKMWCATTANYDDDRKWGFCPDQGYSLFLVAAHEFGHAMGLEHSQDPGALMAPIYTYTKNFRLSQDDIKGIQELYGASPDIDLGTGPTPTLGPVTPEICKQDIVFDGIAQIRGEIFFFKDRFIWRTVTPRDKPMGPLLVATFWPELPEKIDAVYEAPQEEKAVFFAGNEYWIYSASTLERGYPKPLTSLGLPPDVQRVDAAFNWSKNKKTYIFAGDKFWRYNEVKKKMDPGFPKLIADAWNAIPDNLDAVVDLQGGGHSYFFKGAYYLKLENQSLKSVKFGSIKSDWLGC
In outline:
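APMA- or trypsin-activated recombinant MMP-2 was incubated at room temperature with serial inhibitor dilutions in Tris buffer pH 7.5 (100 mM NaCl, 10 mM CaCl2, 0.05% Brij), with DMSO from 1% stocks, and 4 μM substrate I. Cleavage was read by fluorescence at 328/415 nm; IC50 was taken from the loss of fluorescence versus inhibitor concentration.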

The target of assay [3] is T3, Human recombinant MMP-14 (Homo sapiens, UniProt P50281).
T3 construct: The catalytic domain enzyme was expressed in E. coli inclusion bodies, solubilized in urea; made in house
The method, then: (§1) Several hydroxamates and salts thereof were analyzed in in vitro assays to determine their ability to inhibit the MMP cleavage of peptide substrates. Inhibition (Ki) and IC50 constants were calculated from the assayed hydroxamate-MMP interactions.
(§2) Human recombinant MMP-1, MMP-2, MMP-9, MMP-13, and MMP-14 were used in this assay. All enzymes were prepared in Assignee's laboratories following usual laboratory procedures. Protocols for the preparation and use of these enzymes are available in the scientific literature. See, e.g., Enzyme Nomenclature (Academic Press, San Diego, Calif., 1992) (and the citations therein). See also, Frije et al., J. Biol. Chem., 26(24), 16766-73 (1994).
The MMP-14 full length cDNA was provided by Dr. Gregory Goldberg of Washington University (St. Louis, Mo.). The catalytic domain enzyme was expressed in E. coli inclusion bodies, solubilized in urea, purified on a preparative […] reverse phase HPLC column, and then refolded in the presence of zinc acetate and purified for use.
(§3) All MMPs were activated using 4-aminophenylmercuric acetate (“APMA”, Sigma Chemical, St. Louis, Mo.) or trypsin. MMP-9 also was activated using human recombinant MMP-3 (purified in Assignee's laboratory following standard cloning and purification techniques).
(§4) Two fluorogenic, methoxycoumarin-containing polypeptide substrates were used in the MMP inhibition assays:
(§5) MCA-ProLeuGlyLeuDpaAlaArgNH2 (I)
(§6) Here, “Dpa” is 3-(2,4-dinitrophenyl)-L-2,3-diaminopropionyl group, and “MCA” is 7-methoxycoumarin-4-yl acetyl. Substrate (I) was purchased from Baychem (Redwood City, Calif.), and substrate II was prepared Assignee's laboratory. Substrate I was used in the IC50 determination assays, while substrate II was used in the Ki determination assays. In the absence of MMP inhibitory activity, either substrate is cleaved at the Gly-Leu peptide bond. This cleavage separates the highly fluorogenic peptide from the 2,4-dinitrophenyl quencher, thus resulting in increase of fluorescent intensity.
(§7) The stock solutions of the assayed hydroxamates (or salts thereof) were prepared in 1% dimethyl sulfoxide (DMSO). These stock solutions were diluted in Buffer A (100 mM Tris-HCl, 100 mM NaCl, 10 mM CaCl2, 0.05% polyoxyethylene 23 lauryl ether, pH 7.5) to obtain solutions with different hydroxamate concentrations, i.e., assay solutions with different concentrations of the assayed MMP inhibitory compound. The experiment controls contained the same amount of Buffer A/DMSO as the assayed sample, but contained no hydroxamate (or salt thereof).
(§8) The assays from which the IC50 determinations were made were performed as follows. The MMPs were activated with either trypsin or APMA (4-aminophenylmercuric acetate, Sigma Chemical, St. Louis, Mo.). The assayed hydroxamate samples were, incubated in Microfluorrm White Plates (Dynatech, Chantilly, VA) and analyzed on a Perkin Elmer L550 plate reader (Norwalk, Conn.). The excitation wavelength was 328 nm, and the emission wavelength—415 nm. All samples (assayed hydroxamates and controls) were incubated in separate plates at room temperature in the presence of 4 μM of MMP substrate (I). As stated in the previous paragraph, samples containing varying concentrations of the same assayed hydroxamate were prepared. Inhibition was measured as a reduction in fluorescent intensity as a function of MMP inhibitor concentration.

Assay [4] deals with T4, Human recombinant MMP-9 (Homo sapiens, UniProt P14780).
T4 construct: made in house; host or cells: MMP-9-transfected HT1080 cells (spent media)
The method, then:
as §1, §2
The MMP-9 proenzyme was purified by gelatin Sepharose chromatography from spent media of MMP-9-transfected HT1080 cells provided by Dr. Howard Welgus of Washington University (St. Louis, Mo.).
as §3, §4, §5, §6, §7, §8

Assay [5] deals with T5, Human recombinant MMP-1 (Homo sapiens, UniProt P03956).
T5 construct: made in house; host or cells: MMP-1-transfected HT-1080 cells (spent media)
T5 sequence (P03956 100-469): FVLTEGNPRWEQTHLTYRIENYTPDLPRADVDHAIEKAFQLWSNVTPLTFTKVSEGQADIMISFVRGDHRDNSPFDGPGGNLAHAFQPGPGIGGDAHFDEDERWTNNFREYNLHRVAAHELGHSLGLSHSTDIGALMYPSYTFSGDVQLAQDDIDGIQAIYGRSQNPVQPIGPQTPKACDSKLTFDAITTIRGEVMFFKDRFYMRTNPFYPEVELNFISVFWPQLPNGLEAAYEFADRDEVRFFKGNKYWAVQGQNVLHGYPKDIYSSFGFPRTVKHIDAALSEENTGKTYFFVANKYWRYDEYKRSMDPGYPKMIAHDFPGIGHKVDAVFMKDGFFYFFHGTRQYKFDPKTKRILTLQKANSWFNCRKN
The method, then: as §1, §2
The MMP-1 proenzyme was purified from the spent media of MMP-1-transfected HT-1080 cells provided by Dr. Harold Welgus of Washington University (St. Louis, Mo.). The protein was purified on a zinc chelating column.
as §3, §4, §5, §6, §7, §8

T4 sequence (P14780 107-707 limits assumed): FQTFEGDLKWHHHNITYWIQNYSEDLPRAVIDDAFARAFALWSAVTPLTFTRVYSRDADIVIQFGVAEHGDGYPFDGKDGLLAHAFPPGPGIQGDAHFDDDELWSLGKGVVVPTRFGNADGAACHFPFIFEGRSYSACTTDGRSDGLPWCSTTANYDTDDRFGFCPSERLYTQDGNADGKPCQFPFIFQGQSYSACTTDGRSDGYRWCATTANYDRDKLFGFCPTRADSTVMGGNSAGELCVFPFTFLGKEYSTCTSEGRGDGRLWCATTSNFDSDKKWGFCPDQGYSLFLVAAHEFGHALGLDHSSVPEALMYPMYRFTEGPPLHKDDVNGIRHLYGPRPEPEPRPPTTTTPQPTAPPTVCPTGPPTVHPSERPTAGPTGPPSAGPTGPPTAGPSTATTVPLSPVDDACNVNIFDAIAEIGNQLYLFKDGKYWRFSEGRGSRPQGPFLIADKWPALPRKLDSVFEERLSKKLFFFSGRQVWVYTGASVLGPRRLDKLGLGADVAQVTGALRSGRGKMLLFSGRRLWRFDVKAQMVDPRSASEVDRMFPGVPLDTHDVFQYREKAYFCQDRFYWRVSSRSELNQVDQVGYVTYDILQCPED

In the case of `COc1ccc(C(=O)NCCCOc2ccc(S(=O)(=O)C3(C(=O)NO)CCN(C4CC4)CC3)cc2)cc1` [Example 18, 1-cyclopropyl-N-hydroxy-4-[[4-[3[(4-methoxybenzoyl)amino]propoxy]phenyl]sulfonyl]-4-piperidinecarboxamide, Monohydrochloride], the half-inhibitory concentration (IC50) in assay [1] was 1.8 nM; in assay [2] it was 537 nM; in assay [3], > 10000 nM; in assay [4], 6000 nM; in assay [5] it was > 10000 nM.

In the case of `CN(CCCOc1ccc(S(=O)(=O)C2(C(=O)NO)CCOCC2)cc1)C(=O)c1ccc(N(C)C)cc1` [Example 19, 4-[[4-[3-[[4-(dimethylamino)benzoyl]methylamino]propoxy]phenyl]sulfonyl]tetrahydro-N-hydroxy-2H-pyran-4-carboxamide], the IC50 in assay [1] was 15 nM; in assay [2], 9000 nM; in assay [3], > 10000 nM; in assay [4], 5190 nM; in assay [5] it was > 10000 nM.

Consider `CN(C)c1ccc(NC(=O)CCCCOc2ccc(S(=O)(=O)C3(C(=O)NO)CCOCC3)cc2)cc1` [Example 20, 4-[[4-[[5-[[4-(dimethylamino)-phenyl]amino]-5-oxopentyl]oxy]phenyl]sulfonyl]tetrahydro-N-hydroxy-2H-pyran-4-carboxamide, Monohydrochloride], for which the IC50 in assay [1] was 1.8 nM; in assay [2], 1.8 nM; in assay [3] it was > 10000 nM; in assay [4], 498 nM; in assay [5], > 10000 nM.

As for `O=C1c2ccccc2C(=O)N1CCCOc1ccc(S(=O)(=O)C2(C(=O)NO)CCOCC2)cc1` [Example 21, 4-[[4-[3-(1,3-dihydro-1,3-dioxo2H-isoindol-2-yl)propoxy]phenyl]sulfonyl]tetrahydro-N-hydroxy-2H-pyran-4-carboxamide], the 50% inhibitory concentration (IC50) in assay [1] was 3.5 nM; in assay [2], 450 nM; in assay [3], > 10000 nM; in assay [4] it was > 10000 nM; in assay [5], > 10000 nM.

On to `O=C1c2ccccc2CN1CCCOc1ccc(S(=O)(=O)C2(C(=O)NO)CCOCC2)cc1` [Example 22, 4-[[4-[3-(1,3-dihydro-1-oxo-2H-isoindol-2-yl)propoxy]phenyl]sulfonyl]tetrahydro-N-hydroxy-2H-pyran-4-carboxamide], for which the concentration for half-maximal inhibition (IC50) in assay [1] is 4.9 nM; in assay [2], 1000 nM; in assay [3] it was > 10000 nM; in assay [4], > 10000 nM; in assay [5], > 10000 nM.

As for `COc1ccc(/C(CCCCOc2ccc(S(=O)(=O)C3(C(=O)NO)CCOCC3)cc2)=N/O)c(OC)c1` [Example 25], the IC50 in assay [1] is 1.8 nM; in assay [2] it was 247 nM; in assay [3] it was > 10000 nM; in assay [4] it was 8500 nM; in assay [5], > 10000 nM.

In the case of `COc1ccc(C(=O)C(C)CCCOc2ccc(S(=O)(=O)C3(C(=O)NO)CCOCC3)cc2)cc1` (stereo not shown) [Example 26, tetrahydro-N-hydroxy-4-[[4-[[5-(4-methyloxyphenyl)-4-methyl-5-oxopentyl]oxy]phenyl]sulfonyl]-2H-pyran-4-carboxamide], the IC50 in assay [1] is 3.4 nM; in assay [2], 52 nM; in assay [3], > 10000 nM; in assay [4], 4430 nM; in assay [5], > 10000 nM.

Turning to `COc1ccc(/C(C#N)=C/CCCOc2ccc(S(=O)(=O)C3(C(=O)NO)CCOCC3)cc2)cc1` [Example 27, 4-[[4-[[(4Z)-5-cyano-5-(4-methoxyphenyl)-4-pentenyl]oxy]phenyl]sulfonyl]tetrahydro-N-hydroxy-2H-pyran-4-carboxamide], the IC50 in assay [1] is 0.2 nM; in assay [2], 83.9 nM; in assay [3] it was > 10000 nM; in assay [4] it was 9370 nM; in assay [5] it was > 10000 nM.

Take `COc1ccc(/C(C)=C/CCCOc2ccc(S(=O)(=O)C3(C(=O)NO)CCOCC3)cc2)cc1` [Example 28, tetrahydro-N-hydroxy-4-[[4[[(4E)-5-(4-methoxyphenyl)-4-hexenyl]oxy]phenyl]sulfonyl]-2H-pyran-4-carboxamide]: the IC50 in assay [1] was 7 nM; in assay [2] it was 76.4 nM; in assay [3] it was > 10000 nM; in assay [4] it was 3710 nM; in assay [5], > 10000 nM.

For the molecule `COc1ccc(-c2coc(CCCOc3ccc(S(=O)(=O)C4(C(=O)NO)CCOCC4)cc3)n2)cc1` [Example 30, tetrahydro-N-hydroxy-4-[[4-[3-[4-(4-methoxyphenyl)-2-oxazolyl]propoxy]phenyl]sulfonyl]-2Hpyran-4-carboxamide], the concentration for half-maximal inhibition (IC50) in assay [1] is 1.3 nM; in assay [2], 22.6 nM; in assay [3], > 10000 nM; in assay [4], 809 nM; in assay [5], > 10000 nM.

With `Cc1ccccc1-c1nnc(CCCOc2ccc(S(=O)(=O)C3(C(=O)NO)CCOCC3)cc2)o1` [Example 32, tetrahydro-N-hydroxy-4-[[4-[3-[5-(2-methylphenyl)-1,3,4-oxadiazol-2-yl]propoxy]phenyl]sulfonyl]-2H-pyran-4-carboxamide], the concentration for half-maximal inhibition (IC50) in assay [1] is 0.8 nM; in assay [2], 218 nM; in assay [3] it was > 10000 nM; in assay [4], 4080 nM; in assay [5], > 10000 nM.
